Measurements as given in a melting point compilation (Tetko et al.).
Starred links: 1 amine or outer side, 2 acyl side, 3 side chain; linkers in the order of their positions; H or OH if unused. Positions of bridges follow the written chain, without caps; N, C: chain ends. Non-standard residues stand in square brackets, D forms with d. Residues, ends and D or L forms follow the SMILES beside them. X6 = CCC(C)C(N[*:1])C(O)CC(=O)OC(C(=O)C(C)C(=O)[*:2])C(C)C; NMeY = CN[CH](Cc1ccc(O)cc1)C(=O)O; NMeL = CN[CH](CC(C)C)C(=O)O

Row | melting point | Compound
1 | 186 to 187 °C | CCCCN(CCCC)c1ccc(C=Cc2ccc(C=CC3=C(C#N)C(=C(C#N)C#N)OC3(C)C(F)(F)F)s2)c(O[Si](c2ccccc2)(c2ccccc2)C(C)(C)C)c1 (stereo not drawn)
2 | 124 to 126 °C | CCC(C)C1NC(=O)C(NC(=O)C(CC(C)C)N(C)C(C)=O)C(C)OC(=O)C(Cc2ccc(OC)cc2)N(C)C(=O)C2CCCN2C(=O)C(CC(C)C)NC(=O)C(C)C(=O)C(C(C)C)OC(=O)CC1O (stereo not drawn) (Ac-[NMeL]T[X6]LP[NMeY](Me); ester 2-C; configuration not given here)
3 | 146 to 149 °C | CS(C)(=O)=NC(=O)c1cc(O)ccc1[N+](=O)[O-]
4 | 60 °C | O=S(=O)(Cl)Cc1cccc(C(F)(F)F)c1
5 | 186 to 189 °C | COc1cc(C(=O)Oc2ccc3c(OC(=O)c4ccc(OCc5ccccc5)c(OC)c4)c4cc(OC(=O)c5ccc(OCc6ccccc6)c(OC)c5)ccc4cc3c2)ccc1OCc1ccccc1
6 | 220 to 222 °C | CCCc1nc(OC)c(NC(=O)N2CCN(c3cc(OC)cc(OC)c3)CC2)cc1C(=O)NC(C)C(=O)Nc1cc(CO)cc(Nc2c3ccccc3nc3ccccc23)c1 (stereo not drawn)
7 | 88 to 89.5 °C | CCCCCC/C(=C\C=C\C(=O)O)c1ccc(OC)cc1
8 | 119 to 127 °C | CC(=O)Nc1cc(N2CCN(Cc3ccccc3)CC2)ccc1OCC(=O)N[C@@H](CC(N)=O)C(=O)N[C@@H](Cc1ccccc1)[C@H](O)C(=O)N1CCC[C@H]1C(=O)NC(C)(C)C
9 | 210 to 212 °C | CCCCc1nn(-c2cc(NC(=O)c3ccccc3)ccc2C(F)(F)F)c(=O)n1Cc1ccc(-c2ccccc2S(=O)(=O)NC(=O)c2ccccc2Cl)cc1F
10 | 160 to 161 °C | NC(=O)OCCCN1CCN2c3ccccc3Cc3ccccc3C2C1 (stereo not drawn)
11 | 111 to 113 °C | CCCCCCCCCCCCNC(=O)c1cccc(Sc2c(Nc3cc(C(=O)NCCCCCCCCCCCC)ccc3Cl)nn(-c3c(Cl)cc(Cl)cc3Cl)c2OC(=O)CCC)c1
12 | 37 to 38 °C | [C-]#[N+]CCCS(=O)(=O)c1ccc(C)cc1
13 | 159 to 161 °C | COc1ccc(C(c2ccccc2)C(C)(C(=O)C(C)(C(c2ccccc2)c2ccc(OC)c(OC)c2)N2C(=O)c3ccccc3C2=O)N2C(=O)c3ccccc3C2=O)cc1OC (stereo not drawn)
14 | 197 °C | Cc1c(NC(=O)c2cccc(OCC(=O)NCCNC(=O)COc3cccc(C(=O)O)c3)c2)c2ccccn2c1C(=O)c1ccc(NC(=O)C(F)(F)F)c(C(=O)OCc2ccccc2)c1
15 | 172 to 177 °C | COC(C)c1nc2c(N)nc3ccccc3c2n1CCOCCNC(=O)NCCCCCCCCNC(=O)NCCOCCn1c(C(C)OC)nc2c(N)nc3ccccc3c21 (stereo not drawn)
16 | 137 to 138 °C | C[Si](C)(C)CCS(=O)(=O)N=S(=O)(c1ccc(N)cc1)C1CC1 (racemic)
17 | 145 to 146 °C | Cc1ccc(OCC(=O)O)c(C(=O)NCc2ccc(Br)cc2F)c1

Row | melting point | Compound
18 | 167 °C | COc1cc(C(=O)c2c(C)c(C(=O)OCc3ccccc3)c3cc(N(C)C)ccn23)ccc1[N+](=O)[O-]
19 | 153 to 158 °C | CCCCCCc1cc(C=C2C(=O)N(CC(CC)CCCC)C(=O)C(C#N)=C2C)sc1-c1ccc(-c2ccc(-c3sc(-c4ccc(N(c5ccccc5)c5ccccc5)cc4)cc3CCCCCC)s2)s1 (stereo not drawn)
20 | 59 to 61 °C | CCCCCCCCCCCCCCCCCCOc1cc(OCCCOc2ccccc2)cc(N(CC(=O)OCc2ccccc2)CC(=O)OCc2ccccc2)c1
21 | 84 to 86 °C | C[C@H](Cc1ccc(OCCCN2CCCCC2)c(OCCCN2CCCCC2)c1)[C@@H](C)Cc1ccc(OCCCN2CCCCC2)c(OCCCN2CCCCC2)c1
22 | 82 to 83 °C | O=Cc1ccc(OC(F)F)c(O)c1
23 | 223 to 224 °C | CCn1cc(C(=O)N[C@@H]2C(=O)N[C@@H]2C(=O)OC)c(=O)c2ccc(C)nc21 (relative stereo)
24 | 188 to 191 °C | COC(=O)Nc1cc(C(/C=C/c2c(OC)cc(OC)cc2OC)S(=O)(=O)C(/C=C/c2c(OC)cc(OC)cc2OC)c2ccc(OC)c(NC(=O)OC)c2)ccc1OC (stereo not drawn)
25 | -0.2 °C | Cc1ccc(Br)cc1C
26 | 212 to 213 °C | CCCNC(Cc1cc(I)c(Oc2cc(I)c(O)c(I)c2)c(I)c1)C(=O)O (stereo not drawn)
27 | 125 °C | CN(C)CCCN=S(=O)(c1ccccc1)c1cccs1 (stereo not drawn)
28 | 139 °C | CCN1CCN(c2ccc(-c3ccnc(Nc4cc(OC)c(OC)c(OC)c4)n3)cn2)CC1
29 | 119 to 120 °C | COc1cc(COc2nn(-c3ccccc3)cc2/C=C/c2nc(N3CCN(C(=O)OC(C)(C)C)CC3)sc2C)ccc1OCc1nc(-c2ccc(CC(=O)O)cc2)oc1C
30 | 118 to 120 °C | CCCc1nc(C(C)(C)O)c(C(=O)OC2OC(=O)c3ccccc32)n1Cc1ccc(-c2ccccc2-c2nnnn2C(c2ccccc2)(c2ccccc2)c2ccccc2)cc1 (stereo not drawn)
31 | 218 to 221 °C | COc1ccc([N+](=O)[O-])cc1C(/C=C/c1ccc(I)cc1)S(=O)(=O)C(/C=C/c1ccc(I)cc1)c1cc([N+](=O)[O-])ccc1OC (stereo not drawn)
32 | 144 °C | CCC(Cc1c(I)cc(I)c(NC(=O)CCCCCNC(=O)C(COCc2ccccc2)N2CCNCCNCCNCC2)c1I)C(=O)O (stereo not drawn)
33 | 216 to 217 °C | Cc1cc(-c2nc3c(S(C)=O)cc(Cl)nn3c2-c2ccnc(N)c2)ccc1F (stereo not drawn)
34 | > 250 °C | CCCCc1ccc(C(=O)Nc2ccc(OC(=O)c3ccc(CCCC)cc3)c3c2C(=O)c2c(NC(=O)c4ccc(CCCC)cc4)cc(C)c(OC(=O)c4ccc(CCCC)cc4)c2C3=O)cc1

Second part, the compound before the results:

Row | Compound | melting point
35 | C=CCOC1OC(CO)C(O)C(OC(=O)CC(CCCCCCCCCCC)OC(=O)CCCCCCCCCCCCC)C1NC(=O)OCC(Cl)(Cl)Cl (stereo not drawn) | 68 to 70 °C
36 | CCCCCCCCCCCCOC(CCCCCCCCCCC)CCOC1C(NC(C)=O)C(OCC2OC(C(=O)O)C(NC(=O)CC(O)CCCCCCCCCCC)C(OCCC(O)CCCCCCCCCCC)C2O)OC(CO)C1OP(=O)(O)O (stereo not drawn) | 179 to 181 °C
37 | CCC(Cc1c(I)cc(I)c(NC(=O)CN2CCN(CC(=O)O)CCN(CC(=O)O)CCN(CC(=O)O)CC2)c1I)C(=O)O (stereo not drawn) | 230 °C
38 | CCCCN(c1nc(NC(C)(C)CC(C)(C)C)nc(N(CCCC)C2CC(C)(C)N(OC3CCCCC3)C(C)(C)C2)n1)C1CC(C)(C)N(OC2CCCCC2)C(C)(C)C1 | 85 to 103 °C
39 | O=P1(Oc2c(Br)c(Br)c(Br)c(Br)c2Br)OCC2(CO1)COP(=O)(Oc1c(Br)c(Br)c(Br)c(Br)c1Br)OC2 (stereo not drawn) | 324 to 326 °C
40 | C=CCOCC(=O)Nc1c(I)c(C(=O)NC(COC(C)=O)COC(C)=O)c(I)c(C(=O)NC(COC(C)=O)COC(C)=O)c1I | 214 to 216 °C
41 | CCCCN(c1nc(N(CCCC)C2CC(C)(C)N(OCC(C)(C)O)C(C)(C)C2)nc(N(CCCC)C2CC(C)(C)N(OCC(C)(C)O)C(C)(C)C2)n1)C1CC(C)(C)N(OCC(C)(C)O)C(C)(C)C1 | 172 to 176 °C
42 | CCCCCCCCCCCCCCCC(=O)C(O)C(O)(C(=O)c1cccc(NC(=O)C(CS)Cc2ccccc2)c1)C(O)C(=O)CCCCCCCCCCCCCCC (stereo not drawn) | 66 to 68 °C
43 | O=C(OI(OC(=O)C(F)(F)F)C(F)(F)C(F)(F)C(F)(F)C(F)(F)C(F)(F)C(F)(F)C(F)(F)C(F)(F)C(F)(F)C(F)(F)F)C(F)(F)F | 83 to 88 °C
44 | CC(NC(=O)C(CC(C(=O)O)C(C)(C)C)NC(=O)C(CC(C(=O)O)C(C)(C)C)NC(=O)C(NC(=O)C(N)C(C)C)C(C)C)C(=O)NC(CC(C(=O)O)C(C)(C)C)C(=O)NC(CC(N)=O)C(=O)OC(C)(C)C (stereo not drawn) | 229 to 231 °C
45 | CCO/N=C(\C)[C@H]1CC[C@H]2[C@@H]3CCC4=CC(=O)CC[C@]4(C)[C@H]3CC[C@]12C | 127 to 129 °C
46 | COc1cc(OC)c(/C=C/C(c2ccc(OC)c(NC(=O)c3cc([N+](=O)[O-])cc([N+](=O)[O-])c3)c2)S(=O)(=O)C(/C=C/c2c(OC)cc(OC)cc2OC)c2ccc(OC)c(NC(=O)c3cc([N+](=O)[O-])cc([N+](=O)[O-])c3)c2)c(OC)c1 (stereo not drawn) | 277 to 279 °C
47 | CCCCCCCCCS(=O)(=O)c1c(S(=O)(=O)CCCCCCCCC)c(S(=O)(=O)CCCCCCCCC)c(S(=O)(=O)CCCCCCCCC)c(S(=O)(=O)CCCCCCCCC)c1S(=O)(=O)CCCCCCCCC | 95 °C
48 | CC(C)CC(NC(=O)OCc1ccccc1)C(=O)NC(C)C(=O)NC(CCCN(C(=N)NC(=O)OCc1ccccc1)C(=O)OCc1ccccc1)C(=O)Oc1cccc2ccccc12 (stereo not drawn) | 179 to 183 °C
49 | CC(CC(CC(Sc1cc(C(C)(C)C)c(O)c(C(C)(C)C)c1)Sc1cc(C(C)(C)C)c(O)c(C(C)(C)C)c1)Sc1cc(C(C)(C)C)c(O)c(C(C)(C)C)c1)Sc1cc(C(C)(C)C)c(O)c(C(C)(C)C)c1 (stereo not drawn) | 160 to 162 °C
50 | O=C(NCC(O)CO)c1c(I)c(C(=O)NCC(O)CO)c(I)c(N2C(=O)COCC2CO)c1I (stereo not drawn) | 227 to 230 °C
51 | CCCCCCCCCCCCCCCCCCOC(=O)C1(C(=O)OCCCCCCCCCCCCCCCCCC)COC2(CC(C)(C)NC(C)(C)C2)OC1 | 54 to 56 °C
52 | CC(=O)N1C(C)(C)CC(OC(=O)C(Cc2cc(C(C)(C)C)c(O)c(C(C)(C)C)c2)(Cc2cc(C(C)(C)C)c(O)c(C(C)(C)C)c2)C(=O)OC2CC(C)(C)N(C(C)=O)C(C)(C)C2)CC1(C)C | 202 °C
53 | CC(=O)OCC(CNC(=O)c1c(I)c(C(=O)NCC(COC(C)=O)OC(C)=O)c(I)c(N2C(=O)COCC2COC(C)=O)c1I)OC(C)=O (stereo not drawn) | 210 to 212 °C
54 | [C-]#[N+]c1c(Cl)cc(OC)cc1Cl | 110 to 112 °C
55 | CN(CC(O)C(CC1CCCCC1)NC(=O)C(Cc1c[nH]cn1)NC(=O)C(CC(=O)C(C)(C)C)Cc1ccccc1)C(Cc1c[nH]cn1)NC(=O)C(CC(=O)C(C)(C)C)Cc1ccccc1 (stereo not drawn) | 118 °C
56 | O=C(NCC(O)CO)c1c(I)c(C(=O)NCC(O)CO)c(I)c(N(CCCN(C(=O)CO)c2c(I)c(C(=O)NCC(O)CO)c(I)c(C(=O)NCC(O)CO)c2I)C(=O)CO)c1I (stereo not drawn) | 234 to 236 °C
57 | O=C(O)c1ccc([Si](CCC(F)(F)C(F)(F)C(F)(F)C(F)(F)C(F)(F)C(F)(F)C(F)(F)C(F)(F)C(F)(F)C(F)(F)F)(CCC(F)(F)C(F)(F)C(F)(F)C(F)(F)C(F)(F)C(F)(F)C(F)(F)C(F)(F)C(F)(F)C(F)(F)F)CCC(F)(F)C(F)(F)C(F)(F)C(F)(F)C(F)(F)C(F)(F)C(F)(F)C(F)(F)C(F)(F)C(F)(F)F)cc1 | 134 to 136 °C
58 | C=C(C)[C@@H]1CC[C@]2(C(=O)N[C@H]3C[C@@H](C(=O)N4CCCCC4)C3(C)C)CC[C@]3(C)[C@H](CC[C@@H]4[C@@]5(C)CC[C@H](OC(=O)[C@@H]6C[C@H](C(=O)O)C6(C)C)C(C)(C)[C@@H]5CC[C@]43C)[C@@H]12 | 258 to 269 °C
